The text below walks through data of paper PMC5697638, “Identification of a Potent Phosphoinositide 3‐Kinase Pan Inhibitor Displaying a Strategic Carboxylic Acid Group and Development of Its Prodrugs” (Chemmedchem, 2017).

Read-outs that look alike come from different tables or passages of the source.

What all share (type): biochemical
Experiment [1] concerns the target T1, hPI3Kβ (PIK3CB wt/PIK3R1) (Homo sapiens, UniProt P42338).
T1 construct: purchased ProQinase, Germany 1168‐1165‐1
Put plainly: lipid kinase assay (ADP-Glo), PI3Kβ. The conditions noted are these: for IC50: Table 2, mean of at least three determinations, 95 % confidence intervals; for inhibition at 1 µM: determined at 1 μM, at least triplicate, read-out: Inhibitory activity, PI3K isoform β. How it is done:
(§1) In vitro selection, lipid kinase assay: To determine the inhibitory activity of the new molecular entities on PI3K enzyme, a lipid kinase assay was performed: recombinant proteins (30 ng), human PI3Kα (PIK3CA/PIK3R1, #1161‐1165‐1 ProQinase–Germany), hPI3Kβ (PIK3CB wt/PIK3R1, #1168‐1165‐1 ProQinase, Germany), hPI3Kγ (PIK3CG, #1163‐0000‐1 ProQinase, Germany), hPI3Kδ (PIK3CD/PIK3R1, #1162–1165‐1 ProQinase, Germany), hPI3K‐C2α (PIK3C2A, #14‐906 Merck Millipore_Merck KGaA, Germany), hPI3K‐C2β (PIK3C2B, #14‐907 Merck Millipore_Merck KGaA, Germany), hPI3K‐c2γ (PIK3C2G, #1207‐0000‐1 ProQinase, Germany), and hVps34 (PIK3C3, #1160‐0000‐1 ProQinase, Germany), were incubated in kinase buffer {12.5 μL; 20 mM Tris‐HCl pH 7.5, 10 mM MgCl2, 10 μM ATP, 0.05 mg mL^−1 BSA, 0.5 mM EDTA, 5 mM HEPES pH 7.5, for PI3Kα,PI3Kβ, PI3Kγ, PI3Kδ, PI3KC‐2α, and PI3KC‐2γ; 15 mM MnCl2, 5 mM EGTA, 100 μM ATP, 50 mM HEPES pH 7.5, 100 mM NaCl, and 0.03 % CHAPS for PI3K‐C2β and VPS34 {BSA=bovine serum albumin; EDTA=ethylenediaminetetraacetic acid; HEPES=4‐(2‐hydroxyethyl)‐1‐piperazineethanesulfonic acid; EGTA=ethylene glycol‐bis(2‐aminoethylether)‐N,N,N′,N′‐tetraacetic acid; CHAPS=3‐[(3‐cholamidopropyl)dimethylammonio]‐1‐propanesulfonate}. In the reaction, the ATP concentration used for different PI3Ks was defined on the basis of the Michaelis–Menten kinetics of each enzyme, provided by the supplier. Reaction was performed in presence of 0.5 mg mL^−1 lipid micelles (1:1 phosphatidylinositol/phosphatidylserine) and in the absence (DMSO alone) or presence of increasing concentrations of each compound (from 0.1 nM to 30 μM). The mixture was kept at room temperature (RT) for 30 min for PI3Kα, PI3Kβ, PI3Kγ, PI3Kδ, PI3KC‐2α, and PI3KC‐2γ and for 1 h for PI3K‐C2β and PI3K‐C3. The amount of ADP produced in the reaction was measured by using the ADP‐Glo Kinase Assay kit from Promega (#V9102) and a luminescence reader (Glomax multi detection system, Promega, model number 9301‐010).
(§2) The residual PI3K lipid kinase activity in the presence of each molecule at different concentrations was related to the control, intended as the recombinant protein in the presence of DMSO alone and was expressed as a percentage. To derive the IC50 value, all data (% of lipid kinase activity) were plotted on a dose–response curve (Graph Pad software), and the IC50 was calculated by using nonlinear regression fit (equation [log agonist] versus response).

Experiment [2] has as its target T2, hPI3Kδ (PIK3CD/PIK3R1) (Homo sapiens, UniProt O00329).
T2 construct: purchased ProQinase, Germany 1162–1165‐1
Kind of experiment: lipid kinase assay (ADP-Glo), PI3Kδ. The conditions noted are these: for IC50: Table 2, mean of at least three determinations, 95 % confidence intervals; for inhibition at 1 µM: determined at 1 μM, at least triplicate, read-out: Inhibitory activity, PI3K isoform δ. On the procedure:
as §1, §2

The target in experiment [3] is T3, hPI3Kγ (PIK3CG) (Homo sapiens, UniProt P48736).
T3 construct: purchased ProQinase, Germany 1163‐0000‐1
Put plainly: lipid kinase assay (ADP-Glo), PI3Kγ. Conditions: for IC50: Table 2, mean of at least three determinations, 95 % confidence intervals; for inhibition at 1 µM: determined at 1 μM, at least triplicate, read-out: Inhibitory activity, PI3K isoform γ. On the procedure:
as §1, §2

The target in experiment [4] is T4, human PI3Kα (PIK3CA/PIK3R1) (Homo sapiens, UniProt P42336).
T4 construct: purchased ProQinase, Germany 1161‐1165‐1
Put plainly: lipid kinase assay (ADP-Glo), PI3Kα. The conditions noted are these: for IC50: mean of at least three determinations, 95 % confidence intervals; for inhibition at 1 µM: determined at 1 μM, at least triplicate, read-out: Inhibitory activity, PI3K isoform α. How it is done: as §1, §2

[5] abbreviates: Table 3, analogues of 37, read-out: IC50 against PI3Kα.

T3 sequence (P48736 whole entry): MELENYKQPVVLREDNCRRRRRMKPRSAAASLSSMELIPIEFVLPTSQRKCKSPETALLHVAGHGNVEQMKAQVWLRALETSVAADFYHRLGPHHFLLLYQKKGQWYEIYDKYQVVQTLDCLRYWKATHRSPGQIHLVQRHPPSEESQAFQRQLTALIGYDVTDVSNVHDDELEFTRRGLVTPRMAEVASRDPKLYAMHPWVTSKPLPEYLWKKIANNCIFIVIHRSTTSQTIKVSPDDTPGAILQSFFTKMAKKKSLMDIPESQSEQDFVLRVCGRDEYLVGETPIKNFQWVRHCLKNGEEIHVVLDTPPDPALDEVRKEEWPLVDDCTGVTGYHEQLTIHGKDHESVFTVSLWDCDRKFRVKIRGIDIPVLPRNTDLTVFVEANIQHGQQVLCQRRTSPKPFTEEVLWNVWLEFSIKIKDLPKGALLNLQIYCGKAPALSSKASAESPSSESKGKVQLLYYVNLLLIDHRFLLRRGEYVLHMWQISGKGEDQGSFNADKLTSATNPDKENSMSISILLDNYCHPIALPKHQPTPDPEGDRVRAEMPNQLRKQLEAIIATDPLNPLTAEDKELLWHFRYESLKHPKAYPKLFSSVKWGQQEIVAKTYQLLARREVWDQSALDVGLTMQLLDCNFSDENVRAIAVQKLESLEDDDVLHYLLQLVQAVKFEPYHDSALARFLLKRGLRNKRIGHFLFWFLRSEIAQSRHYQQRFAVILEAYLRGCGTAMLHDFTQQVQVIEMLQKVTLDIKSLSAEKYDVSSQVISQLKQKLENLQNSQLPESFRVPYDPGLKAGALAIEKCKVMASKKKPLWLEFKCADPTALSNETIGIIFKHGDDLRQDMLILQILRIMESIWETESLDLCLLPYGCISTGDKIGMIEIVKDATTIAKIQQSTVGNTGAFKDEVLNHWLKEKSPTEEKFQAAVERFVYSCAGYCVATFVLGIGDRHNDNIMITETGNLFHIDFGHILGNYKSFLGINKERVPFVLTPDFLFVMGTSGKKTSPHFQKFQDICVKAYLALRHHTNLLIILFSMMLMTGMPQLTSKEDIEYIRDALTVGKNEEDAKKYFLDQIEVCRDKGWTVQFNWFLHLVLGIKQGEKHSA
T4 sequence (P42336 whole entry): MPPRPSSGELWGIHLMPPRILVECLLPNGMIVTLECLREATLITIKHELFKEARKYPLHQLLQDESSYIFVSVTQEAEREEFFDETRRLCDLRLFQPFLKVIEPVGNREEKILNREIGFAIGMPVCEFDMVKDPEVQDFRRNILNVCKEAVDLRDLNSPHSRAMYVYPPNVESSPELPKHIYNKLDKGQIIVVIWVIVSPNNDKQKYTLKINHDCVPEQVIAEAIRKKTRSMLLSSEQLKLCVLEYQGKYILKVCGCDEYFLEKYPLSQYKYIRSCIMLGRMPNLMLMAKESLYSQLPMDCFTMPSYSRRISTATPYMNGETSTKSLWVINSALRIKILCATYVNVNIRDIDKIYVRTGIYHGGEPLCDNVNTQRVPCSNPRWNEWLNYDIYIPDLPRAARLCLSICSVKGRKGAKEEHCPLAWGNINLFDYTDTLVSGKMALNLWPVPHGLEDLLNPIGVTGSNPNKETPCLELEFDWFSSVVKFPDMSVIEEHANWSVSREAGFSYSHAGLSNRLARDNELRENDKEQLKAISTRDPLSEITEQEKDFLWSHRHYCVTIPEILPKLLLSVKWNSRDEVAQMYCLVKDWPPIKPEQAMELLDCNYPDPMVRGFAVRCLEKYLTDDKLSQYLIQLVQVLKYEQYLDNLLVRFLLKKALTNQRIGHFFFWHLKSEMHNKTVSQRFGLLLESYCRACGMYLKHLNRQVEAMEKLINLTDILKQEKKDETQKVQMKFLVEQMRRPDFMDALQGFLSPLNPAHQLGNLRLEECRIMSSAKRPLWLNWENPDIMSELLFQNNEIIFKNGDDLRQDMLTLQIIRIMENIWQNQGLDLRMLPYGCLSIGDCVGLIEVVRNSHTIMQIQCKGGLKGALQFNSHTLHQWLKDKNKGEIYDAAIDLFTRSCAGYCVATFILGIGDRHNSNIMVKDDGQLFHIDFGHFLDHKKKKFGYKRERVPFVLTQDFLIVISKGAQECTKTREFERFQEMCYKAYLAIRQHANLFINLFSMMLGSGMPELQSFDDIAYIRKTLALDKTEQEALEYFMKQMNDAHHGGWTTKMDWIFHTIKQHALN
T4 sequence (P27986 whole entry partner): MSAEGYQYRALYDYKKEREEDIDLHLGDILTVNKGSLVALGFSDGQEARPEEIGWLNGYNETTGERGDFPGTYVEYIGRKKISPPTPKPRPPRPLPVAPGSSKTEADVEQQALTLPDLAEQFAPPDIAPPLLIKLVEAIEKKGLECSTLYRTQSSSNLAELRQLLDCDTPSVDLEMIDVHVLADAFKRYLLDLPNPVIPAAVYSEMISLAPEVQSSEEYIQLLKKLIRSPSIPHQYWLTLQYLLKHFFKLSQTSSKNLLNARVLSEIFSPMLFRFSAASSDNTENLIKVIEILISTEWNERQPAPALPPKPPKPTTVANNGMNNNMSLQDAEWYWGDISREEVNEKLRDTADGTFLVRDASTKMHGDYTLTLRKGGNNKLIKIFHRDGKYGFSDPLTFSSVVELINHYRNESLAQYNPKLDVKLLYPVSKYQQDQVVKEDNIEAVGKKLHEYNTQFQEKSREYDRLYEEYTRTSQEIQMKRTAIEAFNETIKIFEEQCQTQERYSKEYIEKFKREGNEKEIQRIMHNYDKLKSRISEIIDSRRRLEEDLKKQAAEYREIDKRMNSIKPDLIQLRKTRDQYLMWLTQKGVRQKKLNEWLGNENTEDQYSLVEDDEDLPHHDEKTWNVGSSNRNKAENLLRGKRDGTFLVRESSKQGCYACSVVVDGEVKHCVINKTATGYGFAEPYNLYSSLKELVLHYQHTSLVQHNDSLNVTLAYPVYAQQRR
T2 sequence (O00329 whole entry): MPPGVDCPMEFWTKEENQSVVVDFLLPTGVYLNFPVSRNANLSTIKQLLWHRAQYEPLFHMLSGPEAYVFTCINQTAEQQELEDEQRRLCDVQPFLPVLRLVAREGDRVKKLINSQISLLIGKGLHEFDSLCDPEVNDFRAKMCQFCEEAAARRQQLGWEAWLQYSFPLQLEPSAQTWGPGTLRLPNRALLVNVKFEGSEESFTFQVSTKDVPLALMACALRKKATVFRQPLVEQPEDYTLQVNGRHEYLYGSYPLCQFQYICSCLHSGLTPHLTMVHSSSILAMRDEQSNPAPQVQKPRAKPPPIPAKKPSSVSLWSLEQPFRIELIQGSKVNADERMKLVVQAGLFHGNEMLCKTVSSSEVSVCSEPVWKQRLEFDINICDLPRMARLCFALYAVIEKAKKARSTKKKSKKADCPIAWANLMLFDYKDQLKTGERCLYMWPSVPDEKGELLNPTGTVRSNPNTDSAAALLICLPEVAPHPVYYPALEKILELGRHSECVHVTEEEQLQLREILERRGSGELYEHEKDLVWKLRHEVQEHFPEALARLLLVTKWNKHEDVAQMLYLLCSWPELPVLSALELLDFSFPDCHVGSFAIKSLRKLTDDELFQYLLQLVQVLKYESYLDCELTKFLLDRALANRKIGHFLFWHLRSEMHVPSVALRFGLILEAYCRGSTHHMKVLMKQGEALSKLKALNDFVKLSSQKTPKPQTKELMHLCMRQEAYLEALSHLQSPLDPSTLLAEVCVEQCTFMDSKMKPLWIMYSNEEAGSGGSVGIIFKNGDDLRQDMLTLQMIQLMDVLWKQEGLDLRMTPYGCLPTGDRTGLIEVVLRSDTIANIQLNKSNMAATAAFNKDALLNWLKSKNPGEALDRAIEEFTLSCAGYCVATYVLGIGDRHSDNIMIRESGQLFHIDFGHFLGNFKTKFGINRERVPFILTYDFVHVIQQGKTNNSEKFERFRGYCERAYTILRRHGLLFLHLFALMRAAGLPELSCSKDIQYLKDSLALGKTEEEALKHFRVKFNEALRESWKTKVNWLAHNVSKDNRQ
T2 sequence (P27986 whole entry partner): as the sequence (P27986 whole entry partner) above
T1 sequence (P42338 whole entry): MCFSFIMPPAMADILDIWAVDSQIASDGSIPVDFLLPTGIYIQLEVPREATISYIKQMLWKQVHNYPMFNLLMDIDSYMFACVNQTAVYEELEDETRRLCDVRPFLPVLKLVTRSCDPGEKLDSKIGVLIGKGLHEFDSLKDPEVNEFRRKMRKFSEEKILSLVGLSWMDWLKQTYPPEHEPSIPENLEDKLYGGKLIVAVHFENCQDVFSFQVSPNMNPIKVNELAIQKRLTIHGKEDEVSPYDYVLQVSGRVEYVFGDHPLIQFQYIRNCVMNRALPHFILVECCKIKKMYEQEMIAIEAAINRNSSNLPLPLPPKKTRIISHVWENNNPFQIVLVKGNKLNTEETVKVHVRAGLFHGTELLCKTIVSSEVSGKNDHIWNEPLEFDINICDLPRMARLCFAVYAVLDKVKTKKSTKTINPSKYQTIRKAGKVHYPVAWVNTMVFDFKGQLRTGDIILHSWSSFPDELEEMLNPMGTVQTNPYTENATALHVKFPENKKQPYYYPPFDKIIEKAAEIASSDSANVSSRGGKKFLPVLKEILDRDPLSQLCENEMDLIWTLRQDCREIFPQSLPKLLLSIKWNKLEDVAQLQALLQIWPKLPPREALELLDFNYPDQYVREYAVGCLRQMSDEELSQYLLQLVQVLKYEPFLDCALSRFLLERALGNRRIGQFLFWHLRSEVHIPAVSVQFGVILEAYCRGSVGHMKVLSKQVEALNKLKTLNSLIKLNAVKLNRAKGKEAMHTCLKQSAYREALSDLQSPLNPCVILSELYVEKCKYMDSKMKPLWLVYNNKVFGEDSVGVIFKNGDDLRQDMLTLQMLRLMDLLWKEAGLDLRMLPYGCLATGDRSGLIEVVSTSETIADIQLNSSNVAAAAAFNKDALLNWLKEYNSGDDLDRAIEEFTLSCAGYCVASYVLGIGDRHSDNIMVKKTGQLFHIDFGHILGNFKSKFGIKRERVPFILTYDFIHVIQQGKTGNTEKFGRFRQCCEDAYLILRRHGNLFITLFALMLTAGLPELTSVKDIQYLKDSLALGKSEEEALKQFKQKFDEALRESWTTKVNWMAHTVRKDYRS
T1 sequence (P27986 whole entry partner): as the sequence (P27986 whole entry partner) above

Regarding `O=c1cc(N2CCOCC2)[nH]c2c(-c3cn(-c4ccccc4)nn3)cccc12` [Compound 25, 2‐Morpholino‐8‐(1‐phenyl‐1H‐1,2,3‐triazol‐4‐yl)quinolin‐4(1H)‐one], the IC50 in experiment [1] turned out to be 5500 ± 2500 nM; in experiment [2] it was 610 ± 270 nM; in experiment [3], 3000 ± 1000 nM; in experiment [4] (Table 2, read-out: IC50 PI3Kα), 740 ± 310 nM. In addition, the inhibition at 1 µM in experiment [1] was less than 50%; in experiment [2] it was greater than 50%; in experiment [3], less than 50%; in experiment [4], greater than 50%.
For `O=c1cc(N2CCOCC2)[nH]c2c(-c3cn(-c4cccc(O)c4)nn3)cccc12` [Compound 26, 8‐[1‐(3‐Hydroxyphenyl)‐1H‐1,2,3‐triazol‐4‐yl]‐2‐morpholinoquinolin‐4(1H)‐one], the inhibition at 1 µM in experiment [1], in experiment [2], in experiment [3] and in experiment [4] was less than 50% each time.
In the case of `COc1ccc(-n2cc(-c3cccc4c(=O)cc(N5CCOCC5)[nH]c34)nn2)cc1O` [Compound 27, 8‐[1‐(3‐Hydroxy‐4‐methoxyphenyl)‐1H‐1,2,3‐triazol‐4‐yl]‐2‐morpholinoquinolin‐4(1H)‐one], the inhibition at 1 µM in experiment [1], in experiment [2], in experiment [3] and in experiment [4] was less than 50% in each case.
As to `O=c1cc(N2CCOCC2)[nH]c2c(-c3cn(-c4ccc(Cl)cc4)nn3)cccc12` [Compound 28, 8‐[1‐(4‐Chlorophenyl)‐1H‐1,2,3‐triazol‐4‐yl]‐2‐morpholinoquinolin‐4(1H)‐one], the inhibition at 1 µM in experiment [1], in experiment [2], in experiment [3] and in experiment [4] was less than 50% in each case.
As to `O=c1cc(N2CCOCC2)[nH]c2c(-c3cn(-c4ccc(OC(F)(F)F)cc4)nn3)cccc12` [Compound 29, 2‐Morpholino‐8‐{1‐[4‐(trifluoromethoxy)phenyl]‐1H‐1,2,3‐triazol‐4‐yl}quinolin‐4(1H)‐one], the inhibition at 1 µM in experiment [1], in experiment [2], in experiment [3] and in experiment [4] was less than 50% in each case.
Consider `COc1ccc(-n2cc(-c3cccc4c(=O)cc(N5CCOCC5)[nH]c34)nn2)cc1[N+](=O)[O-]` [Compound 30, 8‐[1‐(4‐Methoxy‐3‐nitrophenyl)‐1H‐1,2,3‐triazol‐4‐yl]‐2‐morpholinoquinolin‐4(1H)‐one], for which the inhibition at 1 µM in experiment [1], in experiment [2], in experiment [3] and in experiment [4] was less than 50% throughout.
Take `COC(=O)c1ccc(Cn2cc(-c3cccc4c(=O)cc(N5CCOCC5)[nH]c34)nn2)cc1` [Compound 31, Methyl‐4‐{[4‐(2‐morpholino‐4‐oxo‐1,4‐dihydroquinolin‐8‐yl)‐1H‐1,2,3‐triazol‐1‐yl]methyl}benzoate]: the inhibition at 1 µM in experiment [1], in experiment [2], in experiment [3] and in experiment [4] was less than 50% throughout.
In the case of `Nc1ccc(-n2cc(-c3cccc4c(=O)cc(N5CCOCC5)[nH]c34)nn2)cc1` [Compound 32, 8‐[1‐(4‐Aminophenyl)‐1H‐1,2,3‐triazol‐4‐yl]‐2‐morpholinoquinolin‐4(1H)‐one], the inhibition at 1 µM in experiment [1], in experiment [2], in experiment [3] and in experiment [4] was less than 50% throughout.
Consider `N#CCc1ccc(-n2cc(-c3cccc4c(=O)cc(N5CCOCC5)[nH]c34)nn2)cc1` [Compound 33, 2‐{4‐[4‐(2‐Morpholino‐4‐oxo‐1,4‐dihydroquinolin‐8‐yl)‐1H‐1,2,3‐triazol‐1‐yl]phenyl} acetonitrile], for which the inhibition at 1 µM in experiment [1], in experiment [2], in experiment [3] and in experiment [4] was less than 50% each time.
For the compound `O=c1cc(N2CCOCC2)[nH]c2c(-c3cn(-c4ccc5ccccc5c4)nn3)cccc12` [Compound 34, 2‐Morpholino‐8‐[1‐(naphthalen‐2‐yl)‐1H‐1,2,3‐triazol‐4‐yl]quinolin‐4(1H)‐one], the inhibition at 1 µM in experiment [1], in experiment [2], in experiment [3] and in experiment [4] was less than 50% throughout.
Regarding `COc1cccc(-n2cc(-c3cccc4c(=O)cc(N5CCOCC5)[nH]c34)nn2)c1` [Compound 35, 8‐[1‐(3‐Methoxyphenyl)‐1H‐1,2,3‐triazol‐4‐yl]‐2‐morpholinoquinolin‐4(1H)‐one], the half-inhibitory concentration (IC50) turned out to be 9300 ± 5800 nM in experiment [1]; 810 ± 360 nM in experiment [2]; 4200 ± 2100 nM in experiment [3]; 1300 ± 700 nM in experiment [4] (Table 2, read-out: IC50 PI3Kα). Also, the inhibition at 1 µM in experiment [1] is less than 50%; in experiment [2] it was greater than 50%; in experiment [3] it was less than 50%; in experiment [4], less than 50%.
In the case of `O=C(O)CCCn1cc(-c2cccc3c(=O)cc(N4CCOCC4)[nH]c23)nn1` [Compound 55, 4‐[4‐(2‐Morpholino‐4‐oxo‐1,4‐dihydroquinolin‐8‐yl)‐1H‐1,2,3‐triazol‐1‐yl]butanoic acid], the IC50 in experiment [4] (setting [5]) is greater than 1000 nM.
Turning to `O=C(O)CCCCn1cc(-c2cccc3c(=O)cc(N4CCOCC4)[nH]c23)nn1` [Compound 56, 5‐[4‐(2‐Morpholino‐4‐oxo‐1,4‐dihydroquinolin‐8‐yl)‐1H‐1,2,3‐triazol‐1‐yl]pentanoic acid], the IC50 in experiment [4] (setting [5]) is greater than 1000 nM.
In the case of `O=C(O)CCCCCn1cc(-c2cccc3c(=O)cc(N4CCOCC4)[nH]c23)nn1` [Compound 57], the IC50 in experiment [4] (setting [5]) is greater than 1000 nM.
With `CS(=O)(=O)NC(=O)c1cccc(Cn2cc(-c3cccc4c(=O)cc(N5CCOCC5)[nH]c34)nn2)c1` [Compound 58, N ‐(Methylsulfonyl)‐3‐{[4‐(2‐morpholino‐4‐oxo‐1,4‐dihydroquinolin‐8‐yl)‐1H‐1,2,3‐triazol‐1‐yl]methyl}benzamide], the IC50 in experiment [4] (setting [5]) was greater than 1000 nM.
Take `NC(=O)c1cccc(Cn2cc(-c3cccc4c(=O)cc(N5CCOCC5)[nH]c34)nn2)c1` [Compound 59, 3‐{[4‐(2‐Morpholino‐4‐oxo‐1,4‐dihydroquinolin‐8‐yl)‐1H‐1,2,3‐triazol‐1‐yl]methyl}benzamide]: the IC50 in experiment [4] (setting [5]) was determined as 800 ± 740 nM.
For `O=C(NCc1ccccc1)c1cccc(Cn2cc(-c3cccc4c(=O)cc(N5CCOCC5)[nH]c34)nn2)c1` [Compound 60, N ‐Benzyl‐3‐{[4‐(2‐morpholino‐4‐oxo‐1,4‐dihydroquinolin‐8‐yl)‐1H‐1,2,3‐triazol‐1‐yl]methyl}benzamide], the IC50 in experiment [4] (setting [5]) amounted to 140 ± 90 nM.
In the case of `O=C(NC1CC1)c1cccc(Cn2cc(-c3cccc4c(=O)cc(N5CCOCC5)[nH]c34)nn2)c1` [Compound 61, N ‐Cyclopropyl‐3‐{[4‐(2‐morpholino‐4‐oxo‐1,4‐dihydroquinolin‐8‐yl)‐1H‐1,2,3‐triazol‐1‐yl]methyl}benzamide], the half-inhibitory concentration (IC50) in experiment [4] (setting [5]) was 250 ± 80 nM.
As for `CCN(CC)C(=O)c1cccc(Cn2cc(-c3cccc4c(=O)cc(N5CCOCC5)[nH]c34)nn2)c1` [Compound 62, N,N ‐Diethyl‐3‐{[4‐(2‐morpholino‐4‐oxo‐1,4‐dihydroquinolin‐8‐yl)‐1H‐1,2,3‐triazol‐1‐yl]methyl}benzamide], the half-maximal inhibitory concentration (IC50) in experiment [4] (setting [5]) turned out to be 290 ± 80 nM.
Still for that read-out and setting: then `O=c1cc(N2CCOCC2)[nH]c2c(-c3cn(Cc4cccc(-c5nnn[nH]5)c4)nn3)cccc12` [Compound 63, 8‐{1‐[3‐(1H‐Tetrazol‐5‐yl)benzyl]‐1H‐1,2,3‐triazol‐4‐yl}‐2‐morpholinoquinolin‐4(1H)‐one], with greater than 1000 nM.

For orientation: IC50 means the midpoint of a concentration-inhibition curve.
